According to US4933361A, “Derivatives of bicyclic aminoacids agents containing these compounds and their use” (Hoechst Aktiengesellschaft, priority 1981, dated 1990):
Structures can show the parent of a compound that is named as a salt.

Tested on: pressor reaction induced by 310 ng of angiotensin I
Assay: Intraduodenal administration to the anesthetized rat, 50% inhibition of the pressor reaction induced by angiotensin I
Type: in vivo
Details: 310 ng angiotensin I, 30 min after administration; for ED50: 0.5 h
From the text: After administration in the dose . . . =ED50 :

[1] = Table I, H atoms on C-3a and C-(6+n)a cis
[2] = Table II, H atoms on C-3a and C-(6+n)a trans, X = phenyl, R1 = methyl

SMILES	ED50 [1]	ED50 [2]	other results
C[C@H](N[C@@H](CCc1ccccc1)C(=O)O)C(=O)N1[C@@H]2CCCC[C@@H]2C[C@H]1C(=O)O [Example 20, N-(1S-Carboxy-3-phenylpropyl)-S-alanyl-2S,3aR,7aR-octahydroindole-2-carboxylic acid]	0.6 mg/kg	–	–
CCOC(=O)[C@H](CCc1ccccc1)N[C@@H](C)C(=O)N1[C@@H]2CCCCC[C@@H]2C[C@H]1C(=O)O [Example 19, N-(1S-Carboethoxy-3-phenylpropyl)-S-alanyl-2S,3aR,8aR-decahydrocyclohepta[b]pyrrole-2-carboxylic acid hydrochloride]	0.23 mg/kg	–	–
CCOC(=O)[C@H](CCc1ccccc1)N[C@@H](C)C(=O)N1[C@H](C(=O)O)C[C@H]2CCCCC[C@@H]21 [Example 46, N-(1S-Carboethoxy-3-phenylpropyl)-S-alanyl-2S,3aR,8aS-decahydrocyclohepta[b]pyrrole-2-carboxylic acid]	–	0.11 mg/kg	–
C[C@H](N[C@@H](CCc1ccccc1)C(=O)O)C(=O)N1[C@H](C(=O)O)C[C@H]2CCCC[C@@H]21 [Example 75, N-(1S-Carboxy-3-phenylpropyl)-S-alanyl-2S,3aR,7aS-octahydroindole-2-carboxylic acid]	–	0.8 mg/kg	–
CCOC(=O)[C@H](CCc1ccccc1)N[C@@H](C)C(=O)N1[C@@H]2CCCC[C@@H]2C[C@H]1C(=O)O [Example 17, N-(1S-Carboethoxy-3-phenylpropyl)-S-alanyl-2S,3aR,7aR-octahydroindole-2-carboxylic acid hydrochloride]	0.05 mg/kg	–	–
C[C@H](N[C@@H](CCc1ccccc1)C(=O)O)C(=O)N1[C@@H]2CCCC[C@H]2C[C@H]1C(=O)O [Example 76, N-(1S-Carboxy-3-phenylpropyl)-S-alanyl-2S,3aS,7aR-octahydroindole-2-carboxylic acid]	–	0.85 mg/kg	–
CCOC(=O)[C@H](CCc1ccccc1)N[C@@H](C)C(=O)N1[C@H](C(=O)O)C[C@H]2CCCC[C@@H]21 [Example 42, N-(1S-Carboethoxy-3-phenylpropyl)-S-alanyl-2S,3aR,7aS-octahydroindole-2-carboxylic acid]	–	0.055 mg/kg	–
CCOC(=O)[C@H](CC(=O)c1ccccc1)N[C@@H](C)C(=O)N1[C@H](C(=O)O)C[C@H]2CCCC[C@@H]21 [Example 67, N-(1S-Carboethoxy-3-keto-3-phenylpropyl)-S-alanyl-2S,3aR,7aS-octahydroindole-2-carboxylic acid]	–	0.18 mg/kg	–
CCOC(=O)[C@H](CCc1ccccc1)N[C@@H](C)C(=O)N1[C@@H]2CCCC[C@H]2C[C@H]1C(=O)O [Example 43, N-(1S-Carboethoxy-3-phenylpropyl)-S-alanyl-2S,3aS,7aR-octahydroindole-2-carboxylic acid]	–	0.065 mg/kg	–
C[C@H](N[C@@H](CCc1ccccc1)C(=O)O)C(=O)N1[C@@H]2CCC[C@@H]2C[C@H]1C(=O)O [Example 21, N-(1S-Carboxy-3-phenylpropyl)-S-alanyl-2S,3aR,6aR-octahydrocyclopenta[b]pyrrole-2-carboxylic acid]	0.7 mg/kg	–	–
CCOC(=O)[C@H](CC(=O)c1ccccc1)N[C@@H](C)C(=O)N1C(C(=O)O)CC2CCCCC21.O=C(O)C(F)(F)F (stereo partly drawn) [Example 29, N-(1S-Carboethoxy-3-phenyl-3-oxopropyl)-S-alanyl-2β,3aβ,7aβ-octahydroindole-2-carboxylic acid trifluoroacetate]	–	–	ED50 (50% inhibition of the pressor reaction induced by angiotensin I) [1]: 0.39 mg/kg
C[C@H](N[C@@H](CCc1ccccc1)C(=O)O)C(=O)N1[C@@H]2CCCCC[C@@H]2C[C@H]1C(=O)O [Example 22, N-(1S-Carboxy-3-phenylpropyl)-S-alanyl-2S,3aR,8aR-decahydrocyclohepta[b]pyrrole-2-carboxylic acid]	0.84 mg/kg	–	–
CCOC(=O)[C@H](CCc1ccccc1)N[C@@H](C)C(=O)N1[C@H](C(=O)O)C[C@H]2CCC[C@@H]21 [Example 44, N-(1S-Carboethoxy-3-phenylpropyl)-S-alanyl-2S,3aR,6aS-octahydrocyclopenta[b]pyrrole-2-carboxylic acid]	–	0.04 mg/kg	–
C[C@H](N[C@@H](CCc1ccccc1)C(=O)O)C(=O)N1[C@H](C(=O)O)C[C@H]2CCCCC[C@@H]21 [Example 79, N-(1S-Carboxy-3-phenylpropyl)-S-alanyl-2S,3aR,6aS-decahydrocyclohepta[b]pyrrole-2-carboxylic acid]	–	1.08 mg/kg	–
CCOC(=O)[C@H](CCc1ccccc1)N[C@@H](C)C(=O)N1[C@@H]2CCC[C@@H]2C[C@H]1C(=O)O [Example 18, N-(1S-Carboethoxy-3-phenylpropyl)-S-alanyl-2S,3aR,6aR-octahydrocyclopenta[b]pyrrole-2-carboxylic acid hydrochloride]	0.04 mg/kg	–	–
C[C@H](N[C@@H](CCc1ccccc1)C(=O)O)C(=O)N1[C@H](C(=O)O)C[C@H]2CCC[C@@H]21 [Example 77, N-(1S-Carboxy-3-phenylpropyl)-S-alanyl-2S,3aR,6aS-octahydrocyclopenta[b]pyrrole-2-carboxylic acid]	–	0.7 mg/kg	–
